In PubChem BioAssay (NCI):
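All cell lines were grown in 96-well plates and treated with compound for 48 hours. The concentration for 50% growth inhibition is given as GI50. TGI is the concentration that stops growth completely.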

Key:
Assay in all cases: inhibition of tumour cell growth, NCI panel, 48 h
[1] = tested on: 786-0 renal
[2] = tested on: A498 renal
[3] = tested on: A549 NSCLC
[4] = tested on: ACHN renal
[5] = tested on: BT-549 breast
[6] = tested on: CAKI-1 renal
[7] = tested on: CCRF-CEM leukemia
[8] = tested on: COLO 205 colon
[9] = tested on: DU-145 prostate
[10] = tested on: EKVX NSCLC
[11] = tested on: HCT-116 colon
[12] = tested on: HCT-15 colon
[13] = tested on: HL-60(TB) leukemia
[14] = tested on: HOP-62 NSCLC
[15] = tested on: HOP-92 NSCLC
[16] = tested on: HS 578T breast
[17] = tested on: HT29 colon
[18] = tested on: IGROV1 ovarian
[19] = tested on: K-562 leukemia
[20] = tested on: KM12 colon
[21] = tested on: LOX IMVI melanoma
[22] = tested on: M14 melanoma
[23] = tested on: MALME-3M melanoma
[24] = tested on: MCF7 breast
[25] = tested on: MDA-MB-231 breast
[26] = tested on: MDA-MB-435
[27] = tested on: MDA-N
[28] = tested on: MOLT-4 leukemia
[29] = tested on: NCI-H226 lung
[30] = tested on: NCI-H23 lung
[31] = tested on: NCI-H522 lung
[32] = tested on: NCI/ADR-RES ovarian
[33] = tested on: OVCAR-3 ovarian
[34] = tested on: OVCAR-4 ovarian
[35] = tested on: OVCAR-5 ovarian
[36] = tested on: OVCAR-8 ovarian
[37] = tested on: PC-3 prostate
[38] = tested on: RPMI-8226 leukemia
[39] = tested on: RXF 393 renal
[40] = tested on: SF-268 CNS
[41] = tested on: SF-295 CNS
[42] = tested on: SK-MEL-2 melanoma
[43] = tested on: SK-MEL-28 melanoma
[44] = tested on: SK-MEL-5 melanoma
[45] = tested on: SK-OV-3 ovarian
[46] = tested on: SN12C renal
[47] = tested on: SNB-19 CNS
[48] = tested on: SNB-75 CNS
[49] = tested on: SR leukemia
[50] = tested on: SW-620 colon
[51] = tested on: T-47D breast
[52] = tested on: TK-10 renal
[53] = tested on: U251 CNS
[54] = tested on: UACC-257 melanoma
[55] = tested on: UACC-62 melanoma
[56] = tested on: UO-31 renal
[57] = tested on: NCI-H460 lung
[58] = tested on: SF-539 CNS

With Oc1c(Br)cc(CN(Cc2cc(Br)c(O)c(Br)c2)C2CCCCC2)cc1Br the TGI [1] was greater than 100 µM, the TGI [2] was greater than 100 µM and the TGI [3] was greater than 100 µM. The TGI [4] was greater than 100 µM, the TGI [5] was greater than 100 µM and the TGI [6] was greater than 100 µM. For the same compound, the TGI [7] was greater than 100 µM, the TGI [8] was greater than 100 µM and the TGI [9] was greater than 100 µM. It also gave a TGI [10] greater than 100 µM, a TGI [11] greater than 100 µM and a TGI [12] greater than 100 µM. It also gave a TGI [13] greater than 100 µM, a TGI [14] greater than 100 µM and a TGI [15] greater than 100 µM. The TGI [16] was greater than 100 µM, the TGI [17] was greater than 100 µM and the TGI [18] was greater than 100 µM. For the same compound, the TGI [19] was greater than 100 µM, the TGI [20] was greater than 100 µM and the TGI [21] was greater than 100 µM. It also gave a TGI [22] greater than 100 µM, a TGI [23] greater than 100 µM and a TGI [24] greater than 100 µM. It also gave a TGI [25] greater than 100 µM, a TGI [26] greater than 100 µM and a TGI [27] greater than 100 µM. For the same compound, the TGI [28] was greater than 100 µM, the TGI [29] was greater than 100 µM and the TGI [30] was greater than 100 µM. The TGI [31] was greater than 100 µM, the TGI [32] was greater than 100 µM and the TGI [33] was greater than 100 µM. It also gave a TGI [34] greater than 100 µM, a TGI [35] greater than 100 µM and a TGI [36] greater than 100 µM. It also gave a TGI [37] greater than 100 µM, a TGI [38] greater than 100 µM and a TGI [39] greater than 100 µM. The TGI [40] was greater than 100 µM, the TGI [41] was greater than 100 µM and the TGI [42] was greater than 100 µM. It also gave a TGI [43] greater than 100 µM, a TGI [44] greater than 100 µM and a TGI [45] greater than 100 µM. The TGI [46] was greater than 100 µM, the TGI [47] was greater than 100 µM and the TGI [48] was greater than 100 µM. It also gave a TGI [49] greater than 100 µM, a TGI [50] greater than 100 µM and a TGI [51] greater than 100 µM. It also gave a TGI [52] greater than 100 µM, a TGI [53] greater than 100 µM and a TGI [54] greater than 100 µM. For the same compound, the TGI [55] was greater than 100 µM and the TGI [56] was greater than 100 µM.

COc1cc2c3c(n(C)c(=O)c2cc1OC)-c1cc2c(cc1/C3=C/CCCCBr)OCO2 gave a TGI [1] greater than 100 µM, a TGI [2] of 87.4 µM and a TGI [3] greater than 100 µM. It also gave a TGI [4] greater than 100 µM, a TGI [5] greater than 100 µM and a TGI [6] greater than 100 µM. It also gave a TGI [7] of 7.44 µM, a TGI [8] greater than 100 µM and a GI50 [9] of 4.46 µM. The TGI [9] was greater than 100 µM, the TGI [10] was greater than 100 µM and the GI50 [11] was 9.47 µM. For the same compound, the TGI [11] was greater than 100 µM, the TGI [12] was greater than 100 µM and the TGI [13] was greater than 100 µM. It also gave a GI50 [14] of 26.6 µM, a TGI [14] greater than 100 µM and a TGI [15] greater than 100 µM. It also gave a TGI [16] greater than 100 µM, a TGI [17] greater than 100 µM and a TGI [18] greater than 100 µM. It also gave a TGI [19] greater than 100 µM, a TGI [20] greater than 100 µM and a TGI [21] greater than 100 µM. It also gave a TGI [22] greater than 100 µM, a TGI [23] greater than 100 µM and a TGI [24] greater than 100 µM. The TGI [25] was greater than 100 µM, the GI50 [26] was greater than 100 µM and the TGI [26] was greater than 100 µM. For the same compound, the TGI [27] was greater than 100 µM, the TGI [28] was greater than 100 µM and the TGI [30] was greater than 100 µM. For the same compound, the TGI [57] was greater than 100 µM, the TGI [31] was greater than 100 µM and the TGI [32] was greater than 100 µM. It also gave a GI50 [33] greater than 100 µM, a TGI [33] greater than 100 µM and a TGI [35] greater than 100 µM. The TGI [36] was greater than 100 µM, the TGI [37] was greater than 100 µM and the TGI [38] was 64.5 µM. The TGI [39] was greater than 100 µM, the TGI [40] was greater than 100 µM and the TGI [41] was greater than 100 µM. For the same compound, the GI50 [58] was 7.07 µM, the TGI [58] was greater than 100 µM and the TGI [42] was greater than 100 µM. For the same compound, the TGI [43] was greater than 100 µM, the TGI [44] was greater than 100 µM and the TGI [45] was greater than 100 µM. For the same compound, the GI50 [46] was greater than 100 µM, the TGI [46] was greater than 100 µM and the TGI [47] was greater than 100 µM. For the same compound, the TGI [48] was 96.1 µM, the TGI [49] was 15.6 µM and the TGI [50] was greater than 100 µM. The TGI [51] was greater than 100 µM, the TGI [52] was greater than 100 µM and the TGI [53] was greater than 100 µM. It also gave a TGI [54] greater than 100 µM, a GI50 [55] greater than 100 µM and a TGI [55] greater than 100 µM. For the same compound, the TGI [56] was greater than 100 µM.
